# In publication PMC8880564, “Design, Synthesis, and Biological Evaluation of a Novel VEGFR-2 Inhibitor Based on a 1,2,5-Oxadiazole-2-Oxide Scaffold with MAPK Signaling Pathway Inhibition” (Pharmaceuticals, 2022):
# Assays:
# Assay in all cases: NCI-60 one-dose SRB screening
# Type in all cases: cell-based
# COLO 205 = settings: Homo sapiens, COLO 205, Colon Cancer, 10 µM one dose, 48 h, read-out: growth percentage
# NCI-H460 = settings: Homo sapiens, NCI-H460, Non-Small Cell Lung Cancer, 10 µM one dose, 48 h, read-out: growth percentage
# MDA-MB-231/ATCC = settings: Homo sapiens, Breast Cancer, 10 µM one dose, 48 h, read-out: growth percentage
# RXF 393 = settings: Homo sapiens, RXF 393, Renal Cancer, 10 µM one dose, 48 h, read-out: growth percentage
# RPMI-8226 = settings: Homo sapiens, RPMI-8226, Leukemia, 10 µM one dose, 48 h, read-out: growth percentage
# NCI-H23 = settings: Homo sapiens, NCI-H23, Non-Small Cell Lung Cancer, 10 µM one dose, 48 h, read-out: growth percentage
# SR = settings: Homo sapiens, Leukemia, 10 µM one dose, 48 h, read-out: growth percentage
# SF-539 = settings: Homo sapiens, SF-539, CNS Cancer, 10 µM one dose, 48 h, read-out: growth percentage
# EKVX = settings: Homo sapiens, Non-Small Cell Lung Cancer, 10 µM one dose, 48 h, read-out: growth percentage
# CCRF-CEM = settings: Homo sapiens, Leukemia, 10 µM one dose, 48 h, read-out: growth percentage
# SF-268 = settings: Homo sapiens, SF-268, CNS Cancer, 10 µM one dose, 48 h, read-out: growth percentage
# U251 = settings: Homo sapiens, U-251, U251, CNS Cancer, 10 µM one dose, 48 h, read-out: growth percentage
# NCI-H226 = settings: Homo sapiens, NCI-H226, Non-Small Cell Lung Cancer, 10 µM one dose, 48 h, read-out: growth percentage
# HS 578T = settings: Homo sapiens, Breast Cancer, 10 µM one dose, 48 h, read-out: growth percentage
# K-562 = settings: Homo sapiens, K562, K-562, Leukemia, 10 µM one dose, 48 h, read-out: growth percentage
# HCC-2998 = settings: Homo sapiens, HCC-2998, Colon Cancer, 10 µM one dose, 48 h, read-out: growth percentage
# KM12 = settings: Homo sapiens, KM12, Colon Cancer, 10 µM one dose, 48 h, read-out: growth percentage
# OVCAR-3 = settings: Homo sapiens, OVCAR-3, Ovarian Cancer, 10 µM one dose, 48 h, read-out: growth percentage
# UO-31 = settings: Homo sapiens, UO-31, Renal Cancer, 10 µM one dose, 48 h, read-out: growth percentage
# DU-145 = settings: Homo sapiens, DU-145, Prostate Cancer, 10 µM one dose, 48 h, read-out: growth percentage
# UACC-62 = settings: Homo sapiens, UACC-62, Melanoma, 10 µM one dose, 48 h, read-out: growth percentage
# CAKI-1 = settings: Homo sapiens, CAKI-1, Renal Cancer, 10 µM one dose, 48 h, read-out: growth percentage
Structure (SMILES),activity at 10 µM (COLO 205) [%],activity at 10 µM (NCI-H460) [%],activity at 10 µM (MDA-MB-231/ATCC) [%],activity at 10 µM (RXF 393) [%],activity at 10 µM (RPMI-8226) [%],activity at 10 µM (NCI-H23) [%],activity at 10 µM (SR) [%],activity at 10 µM (SF-539) [%],activity at 10 µM (EKVX) [%],activity at 10 µM (CCRF-CEM) [%],activity at 10 µM (SF-268) [%],activity at 10 µM (U251) [%],activity at 10 µM (NCI-H226) [%],activity at 10 µM (HS 578T) [%],activity at 10 µM (K-562) [%],activity at 10 µM (HCC-2998) [%],activity at 10 µM (KM12) [%],activity at 10 µM (OVCAR-3) [%],activity at 10 µM (UO-31) [%],activity at 10 µM (DU-145) [%],also measured
"Cc1nn(-c2ccc(Br)cc2)c2ncnc(Nc3ccc(OCc4c(-c5ccccc5)no[n+]4[O-])cc3)c12 [6g, 3-((4-((1-(4-bromophenyl)-3-methyl-1H-pyrazolo[3,4-d]pyrimidin-4-yl)amino)phenoxy)methyl)-4-phenyl-1,2,5-oxadiazole 2-oxide]",117,100,84.9,131,108,95,121,90.4,83.5,98.1,104,102,89.9,93.4,103,104,98.6,112,81.5,110,activity at 10 µM (UACC-62): 80.3%; activity at 10 µM (CAKI-1): 84.9%
"Cc1nc(Nc2ccc(OCc3c(-c4ccccc4)no[n+]3[O-])cc2)c2c(C)nn(-c3ccc(Br)cc3)c2n1 [6h, 3-((4-((1-(4-bromophenyl)-3,6-dimethyl-1H-pyrazolo[3,4-d]pyrimidin-4-yl)amino)phenoxy)methyl)-4-phenyl-1,2,5-oxadiazole 2-oxide]",94.4,100,100,136,90.6,96.6,72,96.1,92.3,103,94.7,96.4,109,94.8,83.6,106,97.7,104,74,102,activity at 10 µM (UACC-62): 80.2%; activity at 10 µM (CAKI-1): 83.8%
"Cc1nn(-c2ccccc2)c2nc(C(F)(F)F)nc(Nc3ccc(NCc4c(-c5ccccc5)no[n+]4[O-])cc3)c12 [12a, 3-(((4-((3-methyl-1-phenyl-6-(trifluoromethyl)-1H-pyrazolo[3,4-d]pyrimidin-4-yl)amino)phenyl)amino)methyl)-4-phenyl-1,2,5-oxadiazole 2-oxide]",73.6,53,84.4,86.8,83.4,96.7,58.7,78.1,73.2,59.2,68.6,69.9,85.6,77.9,39.8,85.6,56.7,105,57.5,82.2,activity at 10 µM (UACC-62): 64.9%; activity at 10 µM (CAKI-1): 53%
